Test results reported in publication PMC10788856, “Mimicking Nonribosomal Peptides from the Marine Actinomycete Streptomyces sp. H-KF8 Leads to Antimicrobial Peptides” (ACS Infectious Diseases, 2023).
Like-named read-outs stand apart in the source and are kept apart here. Square brackets hold non-standard residues; d marks the D form. Peptide text beside a SMILES is read from it. Orn = NCCC[C@H](N)C(=O)O

What was measured:
[1] = 37 °C, RP-HPLC
Procedure: Peptide stability in serum is another limiting factor for AMPs as novel antibiotics.[30]
Peptide serum stability was performed according to D́Aloisio et al.[30] and Chen et al.[51] with some minor modifications. The serum stability was investigated using human serum (Sigma-Aldrich) from Human male AB plasma, USA origin, sterile-filtered. 250 μL serum was temperature-equilibrated at 37 °C and 100 μL aqueous peptide solution (L2: 1 mM; L3: 0.9 mM; L3-K: 0.7 mM; and C3: 0.5 mM) was added. RP-HPLC was measured at time intervals of 0, 0.5, 1, 4, and 24 h. For RP-HPLC samples, 30 μL of peptide solution was taken, 7 μL of Fmoc-Gly solution (4 mM) was added, and 2 μL of the sample was injected to HPLC. […]
Figure S 133. RP-HPLC chromatogram (gradient from 10 to 90% acetonitrile in water over 10 min at 2
ml/min, detection at 254 nm) of peptides tested for serum stability. A) peptide L2 B) peptide L3. C)
(1 picture or pasted object on this page, not shown here)

S. aureus = experiment: microbe, parasite or virus in culture; assay type: cell-based; settings: 16 h
C. albicans = experiment: microbe, parasite or virus in culture; assay type: cell-based; settings: 16 h
[2] = tested on: hepatoblastoma (HepG2) cells; assay type: cell-based, human
Procedure: (§1) To confirm the peptide selectivity toward bacteria cells, cytotoxicity assays of synthesized peptides L2, L3, L3-K, and C3 against human embryonic kidney (HEK) and hepatoblastoma (HepG2) were performed (Figure 4). The cell viability was assessed using resazurin 24 h post peptide exposure. The line at 70% cell viability marks out the threshold for cytotoxic potential compared to the negative control.
(§2) Figure 4 Cell viability assessment using the resazurin assay 24 h post peptide exposure: (a) HepG2 and (b) HEK cells were treated with various concentrations of the peptides C3, L3, L3-K, and L2. Triton-X was used as a positive control. Cells cultured in pure cell media were used as negative controls and were considered to have 100% cell viability. The line represents the threshold for cytotoxicity level of 70% of cell viability compared to the negative control. Data are presented as the mean ± SD of three biological replicates of the HepG2 cells and the mean ± SD of two biological replicates of the HEK cells.
(§3) Cytotoxicity against human embryonic kidney (HEK) and hepatoblastoma (HepG2) cell lines was assessed. Cells were grown to an initial seeding density of 10 000 cells per well. Metabolic activity was determined in a resazurin-based assay. HEK and HepG2 cells were exposed to four different concentrations of the peptides for 24 h. Treatment with Triton X-100 at 1% v/v was used as a positive control. Following this exposure period, the cells were treated with resazurin at a final concentration of 0.015 mg/mL for 3 h. The metabolic activity was then determined in an resazurin-based assay. The fluorescence intensities were quantified in a Hidex Sense microplate reader using an excitation wavelength of 544 nm and an emission wavelength of 590 nm.

E. coli CCUG31246 [3] = assay type: cell-based
Procedure: MICs were performed under the same growth conditions used for mode of action analysis following the guidelines issued by the Clinical Laboratory Standardization Institute (CLSI) with slight modifications. Serial two-fold dilutions of the peptides were prepared in 1:10 BHI in a sterile 96-well plate and subsequently inoculated with 5 × 10^5 CFU/mL of E. coli CCUG31246. […] The following MICs were obtained: C3: 512 μg/mL, L3: 64 μg/mL, and L3-K: 128 μg/mL. These concentrations were used for all mechanistic experiments. Polymyxin B was used as a positive control in all assays at a final concentration of 10 μg/mL.

[4] = tested on: human embryonic kidney (HEK) cells; assay type: cell-based
Procedure: as §1, §2, §3

[5] = set-up: method as in PMID 20518462; settings: nitrotyrosine side chain; cited from earlier work
E. coli CCUG31246 [6] = experiment: Bacterial cytological profiling (DAPI, FM4-64, phase contrast); assay type: cell-based; settings: polymyxin B 10 μg/mL
Procedure: To gain insight into the peptides’ antimicrobial mechanisms, bacterial cytological profiling was performed. This live-cell imaging method makes use of different fluorescent dyes and protein fusions together with phase contrast microscopy to assess the phenotype of bacterial cells after antibiotic treatment.[33] Single-cell analysis then gives insight into the extent and population heterogeneity of the observed phenotypic effects. In this study, we used the DNA dye DAPI and the membrane dye FM4-64 and analyzed the effects of the compounds on cell length, nucleoid compaction, and membrane morphology (Figures 6 and S15). […] In the preparation of mechanistic studies, MICs were determined. […]
Bacterial cytological profiling was performed according to Wenzel et al.[34] […] Stained samples were spotted on 1.2% agarose films, sealed with a gene frame, and immediately imaged using a Nikon Eclipse Ti2 inverted fluorescence live-cell imaging system equipped with a CFI Plan Apochromat DM Lambda 100X Oil objective (N.A. = 1.45 and W.D. = 0.13 mm), a Photometrics, PRIME BSI camera, a Lumencor Sola SE II FISH 365 light source, and an Okolab temperature incubation chamber. Images were obtained using the NIS elements AR software version 5.21.03 and were processed and analyzed with ImageJ.[53] Quantification of microscopy images was performed using the ImageJ plugins ObjectJ[54] and MicrobeJ.[55] […]

E. coli CCUG31246 [7] = experiment: DiSC(3)5 microscopy (membrane potential); assay type: cell-based; settings: 1× MIC of peptide, polymyxin B 10 μg/mL; 10 min; 0.5 μM DiSC(3)5
From the text: Propidium iodide is a large organic molecule that is not suitable to detect smaller ion-conducting pores or channels induced by antimicrobials. To assess whether the peptides may form smaller membrane pores sufficient for the passage of ions, we tested their effects on the membrane potential using the fluorescence probe DiSC(3)5.[40] This dye accumulates in the cell membrane in a membrane potential-dependent manner and disassociates, when the membrane potential is dissipated. […] This effect can be clearly seen with polymyxin B (Figure 7b).
The membrane potential of E. coli CCUG31246 and E. coli MC4100 carrying pABCON2-fhuA ΔC/Δ4L was measured by DiSC(3)5 microscopy according to ref. ([40]) with minor modifications. Cells were grown in 1:10 BHI containing 50 μg/mL bovine serum albumin to an OD600 of 0.3 prior to antibiotic treatment with the respective peptides for 10 and 60 min. Samples were stained with 0.5 μM DiSC(3)5 for 15 min (added 5 min before adding antibiotics for the 10 min time point and after 45 min of antibiotic treatment for the 60 min time point). Stained samples were spotted on 1.2% agarose, sealed with a gene frame, and imaged immediately. Microscopy was performed as described above, and fluorescence intensity was analyzed with the same parameters used for propidium iodide detection.

E. coli CCUG31246 [8] = experiment: Propidium iodide staining (pore formation); assay type: cell-based; settings: 1× MIC of peptide, polymyxin B 10 μg/mL; 10 and 60 min
Procedure: Due to the overall similarity of the peptides’ cytological profiles to that of polymyxin B, we further tested their ability to form pores in the cell membrane. To this end, we used the fluorescence probe propidium iodide, which cannot cross intact membranes but can enter cells through pores of sufficient size.[39]
Pore formation was investigated with the fluorescence dye propidium iodide as described previously[56] with minor modifications. E. coli CCUG31246 was grown to an OD600 of 0.3 and subsequently treated with different peptides for 10 and 60 min. Samples were stained with 1 μg/mL propidium iodide for 15 min (added 5 min before adding antibiotics for the 10 min time point and after 45 min of antibiotic treatment for the 60 min time point), spotted on 1.2% agarose films, and sealed with a gene frame. Microscopy was performed as described above. The fluorescence intensity of the different samples was analyzed with MicrobeJ. For detection of bacterial cells from phase contrast images, parameters were set to an area of 1.5-max, length of 1-max, width 0.5–2.5, curvature 0–1.5, and an angularity of 0–0.5. Fluorescence intensity parameters were set to an area of 1.5-max, length of 1-max, and width 0.5–2.5. All other parameters remained at default settings.

[9] = tested on: Escherichia coli (CCUG 31246); experiment: Minimum microbicidal concentration (MMC99) assay; assay type: cell-based, E. coli; settings: BHI diluted 1/100, 37 °C, median, n = 3
Procedure: The microbicidal activity of the synthetic peptides was assessed against S. aureus (ATCC 12600; American Type Culture Collection, Manassas, VA, USA), Escherichia coli (CCUG 31246; Culture Collection, University of Gothenburg, Sweden), and Candida albicans (ATCC 64549/CCUG31028) using an MMC assay, as described previously by […] et al. (specific details in Supporting Information, pages 10, 11).[28] The assay was performed in BHI diluted 1/100 (BHI100). […] page 11: Table S5. Energy and structural ensembles of synthesized peptides. […] Energy -3887.06 -3620.88 -4968.42 -2163.76 -2646.75 Van der Waals solv. Energy 117.32 91.57 183.20 -88.88 -139.89 Mean RMSD* (Å), mean±SD […] Heavy atoms 1.87 ± 0.33 1.77 ± 0.50 0.98 ± 0.34 0.63 ±0.22 2.88 ±0.62 MMC99 activity including salt stability measurements Antimicrobial activity of L2 and L3 in the presence of NaCl. 1Table S6. Peptide MMC99 (μg/ml) sin NaCl S. aureus E.coli C. albicans (mM) 2[…] 0 50 25 25 85 - - - - - - >200 >200 >200 150 - - - - - - >200 >200 >200 3L 0 12.5 12.5 25 12,5 6.3 6.3 12.5 6.3 12.5 […] 150 >400 >400 (-)2 >400 >400 >400 >200 >200 >200 […] or 150 mM NaCl. L2 and L3 were serially diluted in twofold steps with a starting dilution of 200 μg/ml […] All sample dilutions were run in duplicates (L2) or triplicates (L3). 2 The growth of S. aureus at 24 h in BHI 100 with 85 or 150 mM NaCl was reduced. Minimum microbicidal concentration (MMC), killing 99% of the inoculum. All microorganisms were cultured in brain-heart infusion broth (BHI) overnight on a shaker at 37°C. The cultures were thereafter transferred to fresh BHI broth in volumes constituting 10% of total, and incubated for an additional 2 h to reach exponential growth phase. The bacterial cultures were washed once in BHI diluted 1/100 (BHI100), followed by resuspension in BHI100. The cell suspensions were diluted to a density of […] (bacteria) or 2x10^7 CFU/ml (yeast), as estimated by optical density measurement at 590 nm. […] Serum stability Figure S 133. […] A) peptide L2 B) peptide L3. C) peptide L3-K. D) peptide C3.

## CC(C)[C@@H](NC(=O)[C@H](CCCN)NC(=O)[C@@H](NC(=O)[C@H](CCCN)NC(=O)[C@H](Cc1c[nH]c2ccccc12)NC(=O)[C@@H](C)NC(=O)[C@H](NC(=O)[C@@H](C)N)C(C)C)[C@@H](C)O)C(=O)N[C@@H](CCCCN)C(N)=O [L2] (H-[dA][dV][dA]W[Orn]T[Orn][dV]K-NH2)
[1]; human serum from male AB plasma, 250 μL serum + 100 μL aqueous peptide solution (L2 1 mM; L3 0.9 mM; L3-K 0.7 mM; C3 0.5 mM), 0, 0.5, 1, 4, 24 h, Fmoc-Gly internal standard
  stability in human serum: stable after 24 h
[1]; human serum, 24 h, detection at 254 nm
  additional peaks / shoulder in chromatogram after 24 h in serum, total volume percentage: 0.4%
S. aureus
  S. aureus MIC: >512 µg/mL
C. albicans
  C. albicans MIC: >512 µg/mL
[2]
  cytotoxicity, cell viability HepG2: no cytotoxicity at any tested concentration
E. coli CCUG31246 [3]; CCUG31246, 16 h
  E. coli MIC: >512 µg/mL
[4]
  cytotoxicity, cell viability HEK: no cytotoxicity at any tested concentration

## N[C@@H](Cc1ccc(O)c([N+](=O)[O-])c1)C(=O)O [Y-NO2]
[5]
  pKa value: 7.1

## polymyxin B [PolB, reference compound]
E. coli CCUG31246 [6]
  cells with unstained (reduced FM4-64 membrane stain) phenotype after 10 min: over 90%
E. coli CCUG31246 [7]
  membrane potential, DiSC(3)5 fluorescence, 10 min: clear and immediate reduction in the DiSC(3)5 fluorescence intensity
E. coli CCUG31246 [3]; 1:10 BHI, 5 × 10^5 CFU/mL, 37 °C, 16 h, highest concentration 512 μg/mL, median, n = 3
  E. coli MIC: 2.3 µg/mL
E. coli CCUG31246 [8]
  propidium iodide uptake: near-instantaneous uptake of the dye throughout the bacterial population
[9]; 2 h
  E. coli MMC99 2 h: <1.6 µg/mL
[9]; 6 h
  E. coli MMC99 6 h: <1.6 µg/mL
[9]; 24 h
  E. coli MMC99 24 h: <1.6 µg/mL
